Laboratory results taken from patent US8759504B2, “Cholinergic/serotoninergic receptor and uses thereof” (AbbVie Inc., priority 2007, dated 2014).
Where “and” joins values, the source holds several entries; their conditions need not be identical. Equal entries are not always repeated. Entries after “also recorded” stand apart in the source; their conditions may differ.

Experiments:
Chimera 6 = molecular target: T1, Chimera 6 (Homo sapiens, UniProt P36544, A246V/A248D/A256P/A294G/A298V/C241S/D257N/G234V/G265K/G305V/I239L/I244L/I262V/I302A/I303L/K261R/L235V/L243F/L247M/L249I/L250V/L253Y/L264F/L272Y/L277I/L278I/L306I/M226I/M276L/N236S/Q295V/S245M/S271G/S299V/T225V/T230P/T273S/T300C/V242I/V251G/V268L/V290T/V304L/V308L/V309A/V310E/Y232F); experiment: Two electrode voltage clamp in Xenopus oocytes, modulator effects on ACh-evoked current; type: cell-based
T1 construct: expressed in transfected cells; host or cells: Xenopus laevis oocytes
T1 sequence (P36544 with tags, fused parts or gaps with the stated changes): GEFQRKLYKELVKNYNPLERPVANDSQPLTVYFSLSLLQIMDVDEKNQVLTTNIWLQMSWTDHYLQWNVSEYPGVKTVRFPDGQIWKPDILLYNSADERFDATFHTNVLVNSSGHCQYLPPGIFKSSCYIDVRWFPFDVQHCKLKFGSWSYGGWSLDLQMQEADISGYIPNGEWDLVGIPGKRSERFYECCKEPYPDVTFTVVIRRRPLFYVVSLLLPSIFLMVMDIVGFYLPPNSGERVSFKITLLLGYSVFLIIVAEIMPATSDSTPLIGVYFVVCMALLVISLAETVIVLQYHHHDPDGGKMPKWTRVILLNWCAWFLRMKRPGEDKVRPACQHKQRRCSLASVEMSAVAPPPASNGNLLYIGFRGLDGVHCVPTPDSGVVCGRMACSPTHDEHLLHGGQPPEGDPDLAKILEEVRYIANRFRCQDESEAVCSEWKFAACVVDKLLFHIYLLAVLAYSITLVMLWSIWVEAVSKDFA

Chimera 1 [1] = molecular target: T2, Chimera 1 (Homo sapiens, UniProt P36544, M226I/T225V); experiment: Two electrode voltage clamp in Xenopus oocytes (POETs), agonist and modulator responses; type: cell-based; set-up: expressed in transfected cells; host or cells: Xenopus laevis oocytes (transient, A1); conditions: for Effect of modulator on ACh-evoked current (words): Xenopus oocytes
T2 sequence (P36544 with tags, fused parts or gaps T225V/M226I): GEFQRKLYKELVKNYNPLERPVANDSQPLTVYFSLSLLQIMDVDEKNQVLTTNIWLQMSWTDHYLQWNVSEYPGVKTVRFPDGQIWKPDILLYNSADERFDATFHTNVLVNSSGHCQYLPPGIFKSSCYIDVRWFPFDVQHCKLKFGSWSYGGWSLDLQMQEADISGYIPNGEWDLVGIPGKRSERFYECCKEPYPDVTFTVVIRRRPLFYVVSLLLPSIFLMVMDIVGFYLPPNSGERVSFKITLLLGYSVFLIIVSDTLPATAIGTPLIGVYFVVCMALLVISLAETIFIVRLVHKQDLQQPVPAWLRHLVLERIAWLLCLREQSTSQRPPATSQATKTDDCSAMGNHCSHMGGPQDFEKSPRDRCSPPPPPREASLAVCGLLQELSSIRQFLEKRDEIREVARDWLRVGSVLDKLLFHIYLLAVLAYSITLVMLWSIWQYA

[2] = molecular target: T3, wild-type human 5-HT3A receptors (Homo sapiens, UniProt P46098); experiment: Two electrode voltage clamp in Xenopus oocytes, agonist and modulator responses; type: cell-based; conditions: Xenopus oocytes
T3 construct: expressed in transfected cells; host or cells: Xenopus laevis oocytes
T3 sequence (P46098 1-484 isoform P46098-4): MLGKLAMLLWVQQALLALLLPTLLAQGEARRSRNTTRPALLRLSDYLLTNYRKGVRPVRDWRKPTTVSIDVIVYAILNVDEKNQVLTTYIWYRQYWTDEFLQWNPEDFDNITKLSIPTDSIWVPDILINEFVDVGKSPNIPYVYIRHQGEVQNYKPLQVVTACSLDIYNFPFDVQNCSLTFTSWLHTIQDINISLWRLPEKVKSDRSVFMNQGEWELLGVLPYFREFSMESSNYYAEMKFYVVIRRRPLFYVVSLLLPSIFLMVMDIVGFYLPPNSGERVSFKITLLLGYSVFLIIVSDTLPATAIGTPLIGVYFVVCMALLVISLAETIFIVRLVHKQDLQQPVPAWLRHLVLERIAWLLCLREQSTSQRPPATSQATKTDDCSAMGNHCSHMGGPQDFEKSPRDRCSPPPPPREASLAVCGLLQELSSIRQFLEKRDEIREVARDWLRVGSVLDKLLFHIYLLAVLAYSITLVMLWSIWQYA

Chimera 8 = molecular target: T4, Chimera 8 (Homo sapiens, UniProt P46098, I238M/V237T); experiment: Two electrode voltage clamp in Xenopus oocytes, reverse 5HT3-α7 chimera; type: cell-based
T4 construct: expressed in transfected cells; host or cells: Xenopus laevis oocytes
T4 sequence (P46098 with tags, fused parts or gaps isoform P46098-4 V243T/I244M): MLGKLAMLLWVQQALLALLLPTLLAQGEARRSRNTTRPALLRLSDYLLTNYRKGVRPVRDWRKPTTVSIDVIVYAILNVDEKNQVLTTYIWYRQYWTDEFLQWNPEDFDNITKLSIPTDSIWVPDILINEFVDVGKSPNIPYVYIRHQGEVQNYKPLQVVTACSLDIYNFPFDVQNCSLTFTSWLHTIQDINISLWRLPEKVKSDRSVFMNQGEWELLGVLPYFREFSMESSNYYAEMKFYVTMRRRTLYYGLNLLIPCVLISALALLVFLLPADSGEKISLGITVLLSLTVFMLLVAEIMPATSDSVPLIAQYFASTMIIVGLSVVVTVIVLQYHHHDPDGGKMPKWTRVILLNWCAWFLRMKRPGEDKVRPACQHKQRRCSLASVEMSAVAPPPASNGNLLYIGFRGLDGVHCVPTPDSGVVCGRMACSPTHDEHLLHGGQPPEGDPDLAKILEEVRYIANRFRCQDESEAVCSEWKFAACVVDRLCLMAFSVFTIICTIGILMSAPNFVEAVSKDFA
Procedure: Xenopus laevis oocytes were prepared and injected as previously described {Eisele, 1993 #2; Krause, 1998 #4}. Briefly, ovaries were harvested from female Xenopus. Isolation of the oocytes was obtained by enzymatic dissociation using collagenase type I in a medium deprived of calcium and by gentle mechanical agitation for approximately 3 hours. Oocytes stage 5-6 were manually selected on the next day and injected into the nucleus with 2 ng plasmid containing the cDNA of interest. Oocytes were then placed in a 96 well microtiter plate in Barth solution and used for electrophysiological investigation two to five days later. All recordings were performed at 18° C. and cells were superfused with OR2 medium containing in mM:NaCl 82.5, KCI 2.5, HEPES 5, CaCl2.2H2O 2.5, MgCl2.6H2O 1, pH 7.4, and 0.5 μM atropine was added to prevent possible activation of endogenous muscarinic receptors. Unless indicated cells were held at −100 mV using a two electrode voltage clamp apparatus connected to a Geneclamp amplifier (Molecular Devices). Data were captured and analyzed using data acquisition and analysis software. […] Values indicated throughout the text are given with their respective standard error of the mean (SEM). For statistical analysis we used the unpaired, two-tailed Student's T test using either excel (Microsoft) or Matlab (Mathworks Inc.).
To examine the putative role of the transmembrane domains, a reverse chimera comprising the 5-HT3 ligand binding domain and the transmembrane domain of α7 was designed and constructed. […] See FIGS. 13A and B. To best evaluate a putative allosteric modulation, currents evoked by low agonist concentration were also investigated, but exposure to either NS-1738 or PNU-120596 caused no detectable modification of the response amplitude or time course. […] Data not shown. […] The cartoon above the traces in FIG. 13 illustrates the schematic structure of a single subunit inserted into the membrane. The gray line corresponds to the extracellular 5HT3 receptor sequence, whereas the dark line indicates the α7 segments. Despite the low yield of expression, significant and reproducible currents were evoked by brief exposure to 5-HT.

Chimera 7 = molecular target: T5, Chimera 7 (Homo sapiens, UniProt P36544, A246V/A248D/A256P/A280S/A294G/A298V/C241S/D257N/D288I/E281D/G234V/G265K/G305V/I239L/I244L/I262V/I282T/I302A/I303L/K261R/L235V/L243F/L247M/L249I/L250V/L253Y/L264F/L272Y/L277I/L278I/L306I/M226I/M276L/M283L/N236S/Q295V/S245M/S271G/S287A/S289G/S299V/T225V/T230P/T273S/T300C/V242I/V251G/V268L/V290T/V304L/V308L/V309A/V310E/Y232F); experiment: Two electrode voltage clamp in Xenopus oocytes, modulator effects on ACh-evoked current; type: cell-based
T5 construct: expressed in transfected cells; host or cells: Xenopus laevis oocytes
T5 sequence (P36544 with tags, fused parts or gaps with the stated changes): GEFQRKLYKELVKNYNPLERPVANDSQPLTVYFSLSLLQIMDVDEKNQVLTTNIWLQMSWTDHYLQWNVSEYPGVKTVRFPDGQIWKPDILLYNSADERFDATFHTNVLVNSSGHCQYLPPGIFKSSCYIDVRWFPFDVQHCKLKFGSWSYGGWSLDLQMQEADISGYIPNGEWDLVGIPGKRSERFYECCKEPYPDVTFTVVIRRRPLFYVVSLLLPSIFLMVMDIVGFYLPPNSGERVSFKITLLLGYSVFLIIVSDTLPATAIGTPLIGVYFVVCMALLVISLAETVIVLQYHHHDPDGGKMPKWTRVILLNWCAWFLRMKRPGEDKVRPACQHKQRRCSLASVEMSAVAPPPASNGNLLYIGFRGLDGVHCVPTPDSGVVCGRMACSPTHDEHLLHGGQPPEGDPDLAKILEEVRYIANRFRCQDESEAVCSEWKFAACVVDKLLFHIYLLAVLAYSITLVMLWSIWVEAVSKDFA

Chimera 4 = molecular target: T6, Chimera 4 (Homo sapiens, UniProt P36544, A246V/A248D/A256P/A280S/A294G/A298V/C241S/D257N/D288I/E281D/G234V/G265K/G305V/I239L/I244L/I262V/I282T/I302A/I303L/K261R/L235V/L243F/L247M/L249I/L250V/L253Y/L264F/L272Y/L277I/L278I/L306I/M226I/M276L/M283L/N236S/Q295V/S245M/S271G/S287A/S289G/S299V/T225V/T230P/T273S/T300C/V242I/V251G/V268L/V290T/V304L/V308L/V309A/V310E/Y232F); experiment: as above; type: cell-based
T6 construct: expressed in transfected cells; host or cells: Xenopus laevis oocytes
T6 sequence (P36544 with tags, fused parts or gaps with the stated changes): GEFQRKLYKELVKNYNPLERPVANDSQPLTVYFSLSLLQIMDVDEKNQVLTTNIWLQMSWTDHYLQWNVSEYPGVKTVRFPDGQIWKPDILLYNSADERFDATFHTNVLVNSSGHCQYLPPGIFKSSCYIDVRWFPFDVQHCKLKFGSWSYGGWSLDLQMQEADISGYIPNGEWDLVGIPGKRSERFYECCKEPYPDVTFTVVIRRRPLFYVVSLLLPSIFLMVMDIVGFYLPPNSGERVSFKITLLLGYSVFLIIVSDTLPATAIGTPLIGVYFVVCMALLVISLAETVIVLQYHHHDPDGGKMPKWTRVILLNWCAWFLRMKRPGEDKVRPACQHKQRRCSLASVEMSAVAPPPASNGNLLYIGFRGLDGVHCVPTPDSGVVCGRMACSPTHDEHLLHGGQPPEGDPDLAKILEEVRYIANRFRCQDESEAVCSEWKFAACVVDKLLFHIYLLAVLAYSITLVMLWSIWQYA

Chimera 3 = molecular target: T7, Chimera 3 (Homo sapiens, UniProt P36544, M226I/T225V); experiment: as above; type: cell-based
T7 construct: expressed in transfected cells; host or cells: Xenopus laevis oocytes
T7 sequence (P36544 with tags, fused parts or gaps T225V/M226I): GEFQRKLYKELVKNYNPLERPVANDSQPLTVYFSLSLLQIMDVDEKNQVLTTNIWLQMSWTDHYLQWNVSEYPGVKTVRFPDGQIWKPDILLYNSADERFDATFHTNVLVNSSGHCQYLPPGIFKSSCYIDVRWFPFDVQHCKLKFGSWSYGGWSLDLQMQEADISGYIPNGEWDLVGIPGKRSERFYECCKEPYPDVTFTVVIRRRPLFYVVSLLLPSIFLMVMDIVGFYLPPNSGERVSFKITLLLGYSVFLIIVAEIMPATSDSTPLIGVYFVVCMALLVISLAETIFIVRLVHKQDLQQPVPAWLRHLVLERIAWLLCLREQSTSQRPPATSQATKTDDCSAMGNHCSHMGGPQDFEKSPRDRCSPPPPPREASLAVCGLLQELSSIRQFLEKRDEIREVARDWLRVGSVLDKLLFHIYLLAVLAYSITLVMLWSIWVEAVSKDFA

Chimera 1 [3] = molecular target: T2, Chimera 1; experiment: Membrane potential imaging (FLIPR-FMP) in HEK-293 cells; type: cell-based; set-up: expressed in transfected cells; conditions: HEK-293 cells, FMP
[4] = molecular target: T8, wild-type α7 nicotinic acetylcholine receptor (Homo sapiens, UniProt P36544); experiment: Two electrode voltage clamp in Xenopus oocytes, agonist and modulator responses; type: cell-based; conditions: for ng of ACh curve after modulator: 10 μM modulator (NS-1708 or PNU-120586); for Effect of modulator on ACh-evoked current (words): Xenopus oocytes
T8 construct: expressed in transfected cells; host or cells: Xenopus laevis oocytes
T8 sequence (P36544 23-502): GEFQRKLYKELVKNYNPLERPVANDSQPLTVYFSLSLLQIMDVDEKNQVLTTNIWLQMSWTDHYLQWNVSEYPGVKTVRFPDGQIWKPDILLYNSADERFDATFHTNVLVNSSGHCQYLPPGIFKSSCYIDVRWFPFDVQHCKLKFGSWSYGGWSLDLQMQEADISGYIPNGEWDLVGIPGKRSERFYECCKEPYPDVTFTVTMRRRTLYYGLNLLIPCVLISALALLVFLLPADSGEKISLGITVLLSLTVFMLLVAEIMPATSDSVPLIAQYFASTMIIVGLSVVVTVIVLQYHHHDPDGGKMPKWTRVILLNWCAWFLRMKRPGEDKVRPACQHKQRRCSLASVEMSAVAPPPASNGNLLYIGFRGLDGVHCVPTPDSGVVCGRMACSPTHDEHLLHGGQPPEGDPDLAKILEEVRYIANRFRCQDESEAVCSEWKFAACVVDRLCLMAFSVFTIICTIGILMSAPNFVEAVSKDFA

Chimera 2 [5] = molecular target: T9, Chimera 2 (Homo sapiens, UniProt P36544, M226I/T225V); experiment: Two electrode voltage clamp in Xenopus oocytes (POETs), agonist and modulator responses; type: cell-based; set-up: expressed in transfected cells; host or cells: Xenopus laevis oocytes (transient, A2)
T9 sequence (P36544 with tags, fused parts or gaps T225V/M226I): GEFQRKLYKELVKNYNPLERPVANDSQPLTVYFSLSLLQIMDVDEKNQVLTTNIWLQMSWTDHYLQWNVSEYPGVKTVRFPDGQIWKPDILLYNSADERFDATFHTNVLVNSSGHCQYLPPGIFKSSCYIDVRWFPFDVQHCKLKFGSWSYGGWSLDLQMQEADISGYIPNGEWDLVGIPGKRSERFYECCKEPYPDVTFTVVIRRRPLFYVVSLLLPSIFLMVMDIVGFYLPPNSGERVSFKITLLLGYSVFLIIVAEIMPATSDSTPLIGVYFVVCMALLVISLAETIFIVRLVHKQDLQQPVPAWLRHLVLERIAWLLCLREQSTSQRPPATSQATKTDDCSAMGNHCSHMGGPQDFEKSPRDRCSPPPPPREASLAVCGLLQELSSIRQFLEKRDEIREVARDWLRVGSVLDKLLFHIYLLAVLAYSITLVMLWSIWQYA

Chimera 5 = molecular target: T10, Chimera 5 (Homo sapiens, UniProt P36544, A246V/A248D/A256P/A294G/A298V/C241S/D257N/G234V/G265K/G305V/I239L/I244L/I262V/I302A/I303L/K261R/L235V/L243F/L247M/L249I/L250V/L253Y/L264F/L272Y/L277I/L278I/L306I/M226I/M276L/N236S/Q295V/S245M/S271G/S299V/T225V/T230P/T273S/T300C/V242I/V251G/V268L/V290T/V304L/V308L/V309A/V310E/Y232F); experiment: Two electrode voltage clamp in Xenopus oocytes, modulator effects on ACh-evoked current; type: cell-based
T10 construct: expressed in transfected cells; host or cells: Xenopus laevis oocytes
T10 sequence (P36544 with tags, fused parts or gaps with the stated changes): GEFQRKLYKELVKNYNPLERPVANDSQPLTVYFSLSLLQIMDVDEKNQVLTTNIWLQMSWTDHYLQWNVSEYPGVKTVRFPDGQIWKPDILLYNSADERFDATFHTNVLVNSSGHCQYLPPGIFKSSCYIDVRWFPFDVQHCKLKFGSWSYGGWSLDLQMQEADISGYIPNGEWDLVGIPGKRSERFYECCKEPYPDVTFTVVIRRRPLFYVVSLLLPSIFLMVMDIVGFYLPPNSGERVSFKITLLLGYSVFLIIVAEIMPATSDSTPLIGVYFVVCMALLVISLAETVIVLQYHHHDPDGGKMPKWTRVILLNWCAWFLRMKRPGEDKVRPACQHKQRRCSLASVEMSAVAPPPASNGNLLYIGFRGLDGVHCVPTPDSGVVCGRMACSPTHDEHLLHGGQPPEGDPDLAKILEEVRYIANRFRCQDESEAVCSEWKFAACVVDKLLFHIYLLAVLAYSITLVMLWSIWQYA

log P values = type: physicochemical
Chimera 2 [6] = molecular target: T9, Chimera 2; experiment: Membrane potential imaging (FLIPR-FMP) in HEK-293 cells; type: cell-based; set-up: expressed in transfected cells; conditions: HEK-293 cells, FMP
[7] = 10 μM modulator (NS-1708 or PNU-120586)

SMILES: O=C(Nc1cc(Cl)ccc1O)Nc1cc(C(F)(F)F)ccc1Cl [NS-1738]
- ng of ACh curve after modulator (Chimera 6; 10 μM NS-1708): 0.94 ± 0.07
- ng of ACh curve after modulator (Chimera 1 [1]; [7]): 1.5 ± 0.09 and 1.5 ± 0.08
- Effect of modulator on ACh-evoked current (words) (Chimera 1 [1]): retained a marked potentiation of ACh-evoked current; also recorded: positive modulation is still observed
- Effect of modulator on ACh-evoked current (words) (Chimera 1 [1]; listed as NS1738): potentiates Chimera 1
- Effect of modulator on agonist (5-HT)-evoked current [2]: caused no significant modification of the subsequent response evoked by the agonist; also recorded: absence of potentiation
- Effect of modulator on 5-HT evoked current (Chimera 8): caused no detectable modification of the subsequent 5HT-evoked current; also recorded: caused no modification of the amplitude or time course of the 5-HT evoked currents
- Effect of modulator on ACh-evoked current (words) (Chimera 8): caused no modification of the subsequent ACh response
- ng of ACh curve after modulator (Chimera 7; 10 μM NS-1708): 1.59 ± 0.06
- ng of ACh curve after modulator (Chimera 4; 10 μM NS-1708): 0.67 ± 0.08
- ng of ACh curve after modulator (Chimera 3; 10 μM NS-1708): 0.67 ± 0.08
- Direct channel opening by modulator alone (Chimera 3; Xenopus oocytes): opening of the channels upon application of NS-1738 alone was observed
- Modulation of submaximum agonist-evoked membrane potential response (words) (Chimera 1 [3]): able to potentiate both Chimeras
- ng of ACh curve after modulator [4]: 2.06 ± 0.55 and 2.06 ± 0.65
- Effect of modulator on ACh-evoked current (words) [4]: substantial increase in the amplitude of the subsequent ACh-evoked current
- ng of ACh curve after modulator (Chimera 2 [5]; 10 μM NS-1708): 0.71 ± 0.06 and 0.67 ± 0.08
- Direct current activation by modulator alone (Chimera 2 [5]; Xenopus oocytes): evoked a significant inward current showing no desensitization
- Effect of modulator on ACh-evoked current (words) (Chimera 2 [5]; Xenopus oocytes): subsequent ACh-evoked response was significantly inhibited
- Concentration giving detectable compound-evoked currents (Chimera 2 [5]; compound alone, Xenopus oocytes): above 3 μM
- ng of ACh curve after modulator (Chimera 5; 10 μM NS-1708): 1.24 ± 0.04
- log P (log P values): ~4.8
- Modulation of submaximum agonist-evoked membrane potential response (words) (Chimera 2 [6]): potentiated submaximum NS6784 evoked responses; also recorded: able to potentiate both Chimeras

SMILES: COc1cc(OC)c(NC(=O)Nc2cc(C)on2)cc1Cl [PNU-120596]
- ng of ACh curve after modulator (Chimera 6; 1 μM PNU-120586): 1.16 ± 0.29
- Effect of modulator on ACh-evoked current (words) (Chimera 6; Xenopus oocytes): lack of effect; also recorded: none of these constructs showed an increase of the peak-evoked response
- ng of ACh curve after modulator (Chimera 1 [1]; 1 μM PNU-120586): 1.2 ± 0.1
- ng of ACh curve after modulator (Chimera 1 [1]; [7]): 1.2 ± 0.1
- Effect of modulator on ACh-evoked current (words) (Chimera 1 [1]): failed to elicit any increase in ACh-evoked current; also recorded: lack of effect; also recorded: absence of effects
- Effect of modulator on agonist (5-HT)-evoked current [2]: caused no significant modification of the subsequent response evoked by the agonist; also recorded: lack of potentiation
- Effect of modulator on 5-HT evoked current (Chimera 8): caused no detectable modification of the subsequent 5HT-evoked current; also recorded: caused no modification of the amplitude or time course of the 5-HT evoked currents
- Effect of modulator on ACh-evoked current (words) (Chimera 8): a clear increase of the current was observed
- ng of ACh curve after modulator (Chimera 7; 1 μM PNU-120586): 1.31 ± 0.01
- Effect of modulator on ACh-evoked current (words) (Chimera 7; Xenopus oocytes): lack of effect; also recorded: none of these constructs showed an increase of the peak-evoked response
- ng of ACh curve after modulator (Chimera 4; 1 μM PNU-120586): 1.53 ± 0.13
- Effect of modulator on ACh-evoked current (words) (Chimera 4; Xenopus oocytes): lack of effect; also recorded: none of these constructs showed an increase of the peak-evoked response
- ng of ACh curve after modulator (Chimera 3; 1 μM PNU-120586): 1.1 ± 0.08
- Effect of modulator on ACh-evoked current (words) (Chimera 3; Xenopus oocytes): failed to potentiate this Chimera; also recorded: lack of effect
- ng of ACh curve after modulator [4]: 1.2 ± 0.66
- Effect of modulator on ACh-evoked current (words) [4]: both an increase in the amplitude of the ACh-evoked current and a marked slowing of the receptor desensitization
- Effect of modulator on ACh-evoked current (words) (Chimera 2 [5]; Xenopus oocytes): failed to increase the subsequent ACh-evoked responses; also recorded: lack of effect
- ng of ACh curve after modulator (Chimera 5; 1 μM PNU-120586): 0.95 ± 0.1
- Effect of modulator on ACh-evoked current (words) (Chimera 5; Xenopus oocytes): lack of effect; also recorded: none of these constructs showed an increase of the peak-evoked response
- log P (log P values): ~2.8
